Source: patent US20150329498A1, “IRAK INHIBITORS AND USES THEREOF” (Nimbus Iris, Inc., priority 2014, published 2015)

Target: T1, IRAK4 (Homo sapiens, UniProt Q9NWZ3)
T1 construct: purchased CARNA Bioscience 09-145
T1 sequence (Q9NWZ3 1-460): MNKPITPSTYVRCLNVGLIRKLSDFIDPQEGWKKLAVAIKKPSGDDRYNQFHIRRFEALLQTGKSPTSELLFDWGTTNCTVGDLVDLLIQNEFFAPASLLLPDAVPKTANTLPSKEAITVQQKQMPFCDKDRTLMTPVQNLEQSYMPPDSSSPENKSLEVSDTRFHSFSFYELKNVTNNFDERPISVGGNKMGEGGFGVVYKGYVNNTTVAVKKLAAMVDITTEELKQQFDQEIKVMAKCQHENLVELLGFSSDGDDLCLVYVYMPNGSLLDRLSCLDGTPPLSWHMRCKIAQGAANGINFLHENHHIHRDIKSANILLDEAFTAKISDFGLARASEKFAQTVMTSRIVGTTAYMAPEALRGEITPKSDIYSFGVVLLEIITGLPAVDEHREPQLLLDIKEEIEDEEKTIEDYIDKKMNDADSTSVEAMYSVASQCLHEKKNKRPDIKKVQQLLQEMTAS
Experiment: IRAK-4 activity inhibition assay (Caliper)
Format: biochemical
Details: 3.5 nM IRAK4, 1.5 μM Peptide 8, 37 μM ATP
Method: A 1x kinase base buffer was prepared from 50 mM HEPES, pH 7.5 and 0.0015% Brij-35. A stop buffer was prepared from 100 mM HEPES, pH 7.5, 0.015% Brij-35, 0.2% Coating Reagent #3, and 50 mM EDTA.
Test compound was diluted to 50× of the final desired highest inhibitor concentration in reaction by 100% DMSO. 100 ul of this compound dilution was transferred to a well in a 96-well plate. For example, if desired highest inhibitor concentration in IC50 determination is 100 uM, then prepare 5000 uM of compound DMSO solution in this step.
Test compound was serially diluted by transferring 30 μl to 60 μl of 100% DMSO in the next well and so forth for a total of 10 concentrations. 100 μl of 100% DMSO was added to two empty wells for no compound control and no enzyme control in the same 96-well plate.
A new 96-well plate was marked as intermediate plate. 5 μl of compound serial dilution was transferred from source plate to the corresponding wells of the intermediate plate. 45 μl of 1x kinase base buffer (KB buffer) was added to each well of the intermediate plate. The intermediate plate was placed for 10 min on a shaker.
5 μl of each well was transferred from the 96-well intermediate plate to a 384-well plate in duplicates. For example, A1 of the 96-well plate is transferred to A1 and A2 of the 384-well plate. A2 of the 96-well plate is transferred to A3 and A4 of the 384-well plate, and so on.
IRAK4 and DTT in 1x kinase base buffer was added. The 2.5x enzyme mix contained 8.8 nM IRAK4 and 5 mM DTT.
Peptide 8, ATP, MgCl2 and MnCl2 were added in the 1x kinase base buffer. The 2.5x peptide mix contained 3.75 μM peptide 8, 92.5 μM ATP, 12.5 mM MgCl2 and 2.5 mM MnCl2.
Assay plate already contained 5 μl of compound in 10% DMSO. Added 10 μl of 2.5x enzyme solution to each well of the 384-well assay plate, except no enzyme control wells. The final concentration of IRAK4 in reaction was 3.5 nM. Added 10 μl of 1x kinase base buffer to no enzyme control wells in the assay plate. Incubated at room temperature for 10 min.
Added 10 μl of 2.5x peptide solution to each well of the 384-well assay plate. The final concentration of Peptide 8 and ATP was 1.5 μM and 37 μM, respectively. Incubated at for 40 minutes. Added 25 μl of stop buffer to stop reaction. Collected data on Caliper.
Copied conversion % data from Caliper program. Converted conversion % values to percent inhibition values. Percent inhibition=(max−conversion %)/(max−min)*100, where “max” means the conversion % of DMSO control and “min” means the conversion % of no enzyme control.
The compound numbers correspond to the compound numbers in Table 1. Compounds having an activity designated as “A” provided an IC50≦5 μM; compounds having an activity designated as “B” provided an IC50 of 5-20 μM; compounds having an activity designated as “C” provided an IC50 of 20-50 μM; and compounds having an activity designated as “D” provided an IC50≧50 μM. “NA” stands for “not assayed.”

IC50 [µM]	Structure (SMILES)
≤ 5	c1ccc2c(N[C@H]3CC[C@H](N4CCOCC4)CC3)ncnc2c1 [Compound I-1, N-((1r,4r)-4-morpholinocyclohexyl)quinazolin-4-amine]
≤ 5	Brc1ccc2ncnc(O[C@H]3CC[C@H](N4CCOCC4)CC3)c2c1 [Compound I-4, 4-((1r,4r)-4-((6-bromoquinazolin-4-yl)oxy)cyclohexyl)morpholine]
≤ 5	FC(F)(F)c1ccc2ncnc(O[C@H]3CC[C@H](N4CCOCC4)CC3)c2c1 [Compound I-6, 4-((1r,4r)-4-((6-(trifluoromethyl)quinazolin-4-yl)oxy)cyclohexyl)-morpholine]
≤ 5	N#Cc1ccc2ncnc(O[C@H]3CC[C@H](N4CCOCC4)CC3)c2c1 [Compound I-8, 4-(((1r,4r)-4-morpholinocyclohexyl)oxy)quinazoline-6-carbonitrile]
≤ 5	NC(=O)c1ccc2ncnc(O[C@H]3CC[C@H](N4CCOCC4)CC3)c2c1 [Compound I-9, 4-(((1r,4r)-4-morpholinocyclohexyl)oxy)quinazoline-6-carboxamide]
≤ 5	FC(F)(F)c1ccc2ncnc(N[C@H]3CC[C@H](N4CCOCC4)CC3)c2c1 [Compound I-12, N-((1r,4r)-4-morpholinocyclohexyl)-6-(trifluoromethyl)-quinazolin-4-amine]
≤ 5	CN(CC(=O)N1CCCC1)[C@H]1CC[C@H](Nc2ncnc3ccc(C#N)cc23)CC1 [Compound I-13, 4-(((1r,4r)-4-(methyl(2-oxo-2-(pyrrolidin-1-yl)ethyl)amino)-cyclohexyl)amino)quinazoline-6-carbonitrile]
≤ 5	OCC(O)c1ccc2ncnc(O[C@H]3CC[C@H](N4CCOCC4)CC3)c2c1 (some centres unmarked) [Compound I-17, 1-(4-(((1r,4r)-4-morpholinocyclohexyl)oxy)quinazolin-6-yl)ethane-1,2-diol]
≤ 5	CCc1ccc2ncnc(O[C@H]3CC[C@H](N4CCOCC4)CC3)c2c1 [Compound I-18, 4-((1r,4r)-4-((6-ethylquinazolin-4-yl)oxy)cyclohexyl) morpholine]
≤ 5	OCc1ccc2ncnc(O[C@H]3CC[C@H](N4CCOCC4)CC3)c2c1 [Compound I-19, (4-(((1r,4r)-4-morpholinocyclohexyl)oxy)quinazolin-6-yl)methanol]
≤ 5	OCC(O)c1ccc2ncnc(N[C@H]3CC[C@H](N4CCOCC4)CC3)c2c1 (some centres unmarked) [Compound I-21, 1-(4-(((1r,4r)-4-morpholinocyclohexyl)amino)quinazolin-6-yl)-ethane-1,2-diol]
≤ 5	OCc1ccc2ncnc(N[C@H]3CC[C@H](N4CCOCC4)CC3)c2c1 [Compound I-23, (4-(((1r,4r)-4-morpholinocyclohexyl)amino)quinazolin-6-yl)methanol]
≤ 5	COCc1ccc2ncnc(N[C@H]3CC[C@H](N4CCOCC4)CC3)c2c1 [Compound I-32, 6-(methoxymethyl)-N-((1r,4r)-4-morpholinocyclohexyl)quina-zolin-4-amine]
≤ 5	COCCc1ccc2ncnc(N[C@H]3CC[C@H](N4CCOCC4)CC3)c2c1 [Compound I-33, 6-(2-methoxyethyl)-N-((1r,4r)-4-morpholinocyclohexyl)-quinazolin-4-amine]
≤ 5	CC1(C)CCN([C@H]2CC[C@H](Nc3ncnc4ccc(C#N)cc34)CC2)CC1 [Compound I-37, 4-(((1r,4r)-4-(4,4-dimethylpiperidin-1-yl)cyclohexyl)amino)-quinazoline-6-carbonitrile]
≤ 5	OC/C=C\c1ccc2ncnc(N[C@H]3CC[C@H](N4CCOCC4)CC3)c2c1 [Compound I-42, (Z)-3-(4-(((1r,4r)-4-morpholinocyclohexyl)amino)quinazolin-6-yl)prop-2-en-1-ol]
≤ 5	C=Cc1ccc2ncnc(N[C@H]3CC[C@H](N4CCC(C)(C)CC4)CC3)c2c1 [Compound I-43, N-((1r,4r)-4-(4,4-dimethylpiperidin-1-yl)cyclohexyl)-6-vinyl-quinazolin-4-amine]
≤ 5	CCc1ccc2ncnc(N[C@H]3CC[C@H](N4CCC(C)(C)CC4)CC3)c2c1 [Compound I-45, N-((1r,4r)-4-(4,4-dimethylpiperidin-1-yl)cyclohexyl)-6-ethylquina-zolin-4-amine]
≤ 5	N#Cc1ccc2nccc(N[C@H]3CC[C@H](N4CCC5(CC4)CC5)CC3)c2c1 [Compound I-48, 4-(((1r,4r)-4-(6-azaspiro[2.5]octan-6-yl)cyclohexyl)-amino)quinoline-6-carbonitrile]
≤ 5	C=Cc1ccc2nccc(N[C@H]3CC[C@H](N4CCC5(CC4)CC5)CC3)c2c1 [Compound I-49, N-((1r,4r)-4-(6-azaspiro[2.5]octan-6-yl)cyclohexyl)-6-vinylquino-lin-4-amine]
≤ 5	NC(=O)CCc1ccc2ncnc(N[C@H]3CC[C@H](N4CCOCC4)CC3)c2c1 [Compound I-50, 3-(4-(((1r,4r)-4-morpholinocyclohexyl)amino)quinazolin-6-yl)propanamide]
≤ 5	N#CCCc1ccc2ncnc(N[C@H]3CC[C@H](N4CCOCC4)CC3)c2c1 [Compound I-51, 3-(4-(((1r,4r)-4-morpholinocyclohexyl)amino)quinazolin-6-yl)propanenitrile]
≤ 5	O=C(O)/C=C/c1ccc2ncnc(N[C@H]3CC[C@H](N4CCOCC4)CC3)c2c1 [Compound I-55, (E)-3-(4-(((1 r,4r)-4-morpholinocyclohexyl)amino)quinazolin-6-yl)acrylic acid]
≤ 5	CC(C)(O)/C=C/c1ccc2ncnc(N[C@H]3CC[C@H](N4CCOCC4)CC3)c2c1 [Compound I-57, (E)-2-methyl-4-(4-(((1r,4r)-4-morpholinocyclohexyl)amino)quina-zolin-6-yl)but-3-en-2-ol]
≤ 5	Cn1cc(-c2ccc3ncnc(N[C@H]4CC[C@H](N5CCOCC5)CC4)c3c2)cn1 [Compound I-60, 6-(1-methyl-1H-pyrazol-4-yl)-N-((1r,4r)-4-morpholinocyclo-hexyl)quinazolin-4-amine]
≤ 5	Cc1cc(Nc2nc(N[C@H]3CC[C@H](N4CCOCC4)CC3)c3cc(C#N)ccc3n2)sn1 [Compound I-61, 2-((3-methylisothiazol-5-yl)amino)-4-(((1r,4r)-4-morpholino-cyclohexyl)amino)quinazoline-6-carbonitrile]
